{
  "source": "ChEMBL document CHEMBL3045299",
  "about": "“Chromano-analogs of Insecticidal Neolignans of the 1,4-Benzodioxane Type” (1993)",
  "data": [
    {"system": "Musca domestica", "test": "Insecticidal activity against Musca domestica (house fly) assessed as mortality per fly pretreated with piperonyl butoxide measured after 24 hr", "assay_type": "functional", "units": {"LD50": "µg"}, "values": [
      {"smiles": "COCC1Cc2cc([C@H]3OC[C@]4(O)[C@@H](Oc5c(OC)cccc5OC)OC[C@H]34)c(OC)cc2OC1c1ccc2c(c1)OCO2", "note": "(mixture of isomers)", "LD50": 1},
      {"smiles": "COCC1Cc2cc([C@@H]3OC[C@]4(O)[C@@H](Oc5c(OC)cccc5OC)OC[C@H]34)c(OC)cc2OC1c1ccc2c(c1)OCO2", "note": "(mixture of isomers)", "LD50": ">10"},
      {"smiles": "COCC1Oc2cc([C@H]3OC[C@]4(O)[C@@H](Oc5c(OC)cccc5OC)OC[C@H]34)c(OC)cc2CC1c1ccc2c(c1)OCO2", "note": "(mixture of isomers)", "LD50": 0.005},
      {"smiles": "COCC1Oc2cc([C@H]3OC[C@]4(O)[C@@H](Oc5ccc6c(c5)OCO6)OC[C@H]34)c(OC)cc2OC1c1ccc2c(c1)OCO2", "note": "(mixture of isomers)", "LD50": 0.18},
      {"smiles": "COC[C@@H]1Oc2cc([C@H]3OC[C@]4(O)[C@@H](Oc5ccc6c(c5)OCO6)OC[C@H]34)c(OC)cc2O[C@H]1c1ccc2c(c1)OCO2", "note": "(racemic)", "LD50": ">5"},
      {"smiles": "COC[C@H]1Oc2cc([C@H]3OC[C@]4(O)[C@@H](Oc5c(OC)cc6c(c5OC)OCO6)OC[C@H]34)c(OC)cc2O[C@@H]1c1ccc2c(c1)OCO2", "note": "(racemic) [(+)-HAEDOXAN A]", "LD50": 0.00025},
      {"smiles": "COC[C@H]1Oc2cc([C@H]3OC[C@]4(O)[C@@H](Oc5ccc6c(c5)OCO6)OC[C@H]34)c(OC)cc2O[C@@H]1c1ccc2c(c1)OCO2", "note": "(racemic) [(+)-HAEDOXAN E]", "LD50": 0.1},
      {"smiles": "COC[C@H]1Oc2cc([C@H]3OC[C@]4(O)[C@@H](Oc5ccc6c(c5)OCO6)OC[C@H]34)c(OC)cc2O[C@@H]1c1ccc2c(c1)OCO2", "note": "[(+)-HAEDOXAN E]", "LD50": 0.05}
    ]}
  ]
}
